Results on six compounds are retold here after patent US20090042848A1, “COPPER COMPLEXES” (priority 2005, published 2009).

The test system of data set [1] is carrageenan-induced paw edema. The experiment in a line: Inhibition of carrageenan-induced paw edema (rat paw oedema assay). The data set is classed as in vivo, Sprague-Dawley rats. To be noted: oral. Background: Carrageenan injected into the paw causes an acute inflammation.
In another data set the test system is stomach. The experiment in a line: Acute macroscopic gastric damage after oral dosing. Format: in vivo, Sprague-Dawley rats. To be noted: for Gastric Ulceration / macroscopic gastric ulcerations (in words, FIG. 8(1)): oral; for macroscopic gastric ulcerations (in words, FIG. 8(1)): IndoH 10 mg/kg or equimolar Indo dose in 2% (w/v) CMC solution. Here is the method: Rats were fasted with access to water for 24 h prior to dosing and 3 hours post dosing. Three hours after administration of the test compound, the rats were euthanased and the stomach was excised and opened by incision along the greater curvature.
After the aforementioned anti-inflammatory activity experiments, the rats were immediately euthanased. Similarly, the stomach was excised and opened by incision along the greater curvature for the examination of the macroscopic ulcerations (mm^2).
Since there were no significant differences in the results obtained by the two methods, the results shown in FIG. 8(1) are those of the two methods combined.

The next data set has as its system small intestine. Conditions: oral.
The conditions of data set [2]: oral administration; cited from earlier work.
Setting [3] is: 10 mg/kg of Indo dispersed in MCT paste.
The mark [4] stands for this setting: 1 mg/kg of Indo dispersed in MCT paste.
[5] abbreviates: 2 mg/kg of Indo dispersed in MCT paste.

Entries after “also recorded” stand apart in the source; their conditions may differ.

Consider `COc1ccc2c(c1)c(CC(=O)O)c(C)n2C(=O)c1ccc(Cl)cc1` [IndoH, Indomethacin, reference compound], for which the Inhibition % in data set [1] (setting [3]) worked out at 54 ± 12%. Moreover, the “Gastric Ulceration” value with stomach (setting [3]) stood at 115 ± 30 mm^2. In addition, in the data set with small intestine (setting [3]), the “Small Intestine Ulceration (mm^2)” value is 80 ± 7 mm^2.
As to `CN(C)C=O.CN(C)C=O.COc1ccc2c(c1)c(CC(=O)[O-])c(C)n2C(=O)c1ccc(Cl)cc1.COc1ccc2c(c1)c(CC(=O)[O-])c(C)n2C(=O)c1ccc(Cl)cc1.COc1ccc2c(c1)c(CC(=O)[O-])c(C)n2C(=O)c1ccc(Cl)cc1.COc1ccc2c(c1)c(CC(=O)[O-])c(C)n2C(=O)c1ccc(Cl)cc1.[Cu+2].[Cu+2]` [[Cu2(Indo)4(DMF)2], bis(N,N-dimethylformamide)tetrakis-μ-(O,O′-Indo)dicopper(II) complex], the “macroscopic gastric ulcerations (in words, FIG. 8(1))” value (from here on “macroscopic gastric ulcerations”) in the data set on stomach is given as “significant reductions (P<0.01) in gastric ulcerations as compared to those induced by IndoH”. Besides, the “small intestinal toxicity / ulceration (in words, FIG. 8(2))” value in the data set on small intestine (equimolar Indo dose (10 mg/kg IndoH) in 2% (w/v) CMC solution, 24 h after dosing) is on record as “low small intestinal toxicity”. The “gastrointestinal toxicity compared with indomethacin (in words)” value in data set [2] was “less gastrointestinal toxicity than indomethacin”.
Consider “Bis(η^1-O-Indo)tris(pyridine)copper(II) [[Cu(Indo)2(Py)3], reference compound]”, for which the “efficacy in reducing inflammation (in words, FIG. 9)” value in data set [1] (equimolar Indo dose (10 mg/kg IndoH) in 2% (w/v) CMC solution) was “as effective as [Cu2(Indo)4(DMF)2] in reducing inflammation”. The “macroscopic gastric ulcerations” value in the data set with stomach was “no significant difference in the gastric ulcerations induced by [Cu(Indo)2(Py)3] or IndoH”.
For the compound “Bis(η^2-O,O′-Indo)bis(pyrrolidine)copper(II)-2-pyrrolidine monohydrate [[Cu(Indo)2(Pyrro)2]]”, the “macroscopic gastric ulcerations” value with stomach (monohydrate) is “significant reductions (P<0.01) in gastric ulcerations as compared to those induced by IndoH; also recorded: significant reduction in gastric ulceration compared with [Cu2(Indo)4(DMF)2]”. Moreover, the average gastric ulceration with stomach (second experiment, different sample precipitated from solution with diethyl ether, four rats, same dose of Indo) is reported as 21 mm^2.
Take “bis(η^2-O,O′-Indo)bis(4-picoline)copper(II) [[Cu(Indo)2(4-pic)2]]”: the Inhibition % in data set [1] (setting [4]) came to 28%; in data set [1] (setting [5]) it was 54%; in data set [1] (2 mg/kg of Indo in 2% CMC), 16%; in data set [1] (setting [3]) it was 57 ± 19%.
Take “bis(η^2-O,O′-Indo)bis(imidazole)copper(II) [[Cu(Im)2(Indo)2]]”: the Inhibition % is 31% in data set [1] (setting [4]), 39% in data set [1] (setting [5]), 11% in data set [1] (2 mg/kg of Indo in 2% CMC) and 45 ± 16% in data set [1] (setting [3]). Further, the “Gastric Ulceration” value in the data set on stomach (setting [4]) was 2 ± 2 mm^2; with stomach (setting [5]), 3 ± 42 mm^2; in the data set on stomach (2 mg/kg of Indo in 2% CMC) it was 3 ± 3 mm^2; in the data set on stomach (setting [3]), 55 ± 42 mm^2.
